Like-named read-outs stand apart in the source and are kept apart here.
Assay: Pharmacokinetic evaluation following a single oral and intravenous administration
Type: in vivo, CD1 mouse
Conditions: CD1, mouse, plasma; for C0 / AUC(0-inf) / AUC(0-t) / MRT inf / half-life / Vd: Table 10, IV Dose: 1 mg/kg
Protocol: A NMP stock solution was prepared by adding 1.136 mL of NMP to 5.68 mg of compound no. 42140 with vortexing and sonification, to obtain a solution with a concentration at 5 mg/mL of 42140:01. Next, to prepare an intravenous formulation, 0.100 mL of the 5 mg/mL stock solution was placed in a new vial. 0.100 mL of NMP and 0.400 mL of PEG400 were added with vortexing and sonification, followed by addition of 0.400 mL of saline with vortexing and sonification. […] 42140:01. Alternatively, to prepare an oral formulation, 0.200 mL of the 5 mg/mL stock solution was placed in a new vial. 0.400 mL of PEG400 was added with vortexing and sonification, followed by addition of 0.400 mL of saline with vortexing and sonifiction. […] 42140:01.
(§1) Briefly, the desired serial concentrations of working solutions were achieved by diluting a stock solution of the compound with 100% acetonitrile. 3 μL of working solutions (5, 10, 20, 50, 100, 500, 1000, 5000, 10000 ng/mL) were added to 30 μL of the blank CD1 mouse plasma to achieve calibration standards of 0.5-1000 ng/mL (0.5, 1, 2, 5, 10, 50, 100, 500, 1000 ng/mL) in a total volume of 33 μL. Five quality control samples at 1 ng/mL, 2 ng/mL, 5 ng/mL, 50 ng/mL and 800 ng/mL for plasma were prepared independently of those used for the calibration curves. These QC samples were prepared on the day of analysis in the same way as calibration standards.
Next, 33 μL standards, 33 μL QC samples, and 33 μL unknown samples (30 μL plasma with 3 μL blank solution) were added to 200 μL of acetonitrile containing IS mixture for precipitating protein, respectively. Then the samples were vortexed for 30 s. After centrifugation at 4 degree Celsius, 4000 rpm for 15 min, 3 μL of supernatant was injected into the LC/MS/MS system for quantitative analysis.
HPLC analysis was performed using 100% water with 0.1% formic acid (Solution A) and 100% acetonitrile with 0.1% formic acid (Solution B) with a flow rate of 0.6 mL/min.
A NMP stock solution was prepared by adding 2.092 mL of NMP to 10.46 mg of […] with vortexing and sonification, to obtain a solution with a concentration at 5 mg/mL of […]. Next, to prepare an intravenous formulation, 0.100 mL of the 5 mg/mL stock solution was placed in a new vial. 0.100 mL of NMP and 0.400 mL of PEG400 were added with vortexing and sonification, followed by addition of 0.400 mL of saline with vortexing and sonification. […] 42320:01. Alternatively, to prepare an oral formulation, 0.200 mL of the 5 mg/mL stock solution was placed in a new vial. 0.400 mL of PEG400 was added with vortexing and sonification, followed by addition of 0.400 mL of saline with vortexing and sonifiction. […] 42320:01.
as §1, with “50 ng/mL,” for “50 ng/mL”

[1] = iv, 1 mg/kg, Table 9, IV Dose: 1 mg/kg, Mouse 1, read-out: Concentration
[2] = iv, 1 mg/kg, Table 9, IV Dose: 1 mg/kg, Mouse 2, read-out: Concentration
[3] = iv, 1 mg/kg, Table 9, IV Dose: 1 mg/kg, Mouse 3, read-out: Concentration
[4] = iv, 1 mg/kg, Table 9, IV Dose: 1 mg/kg, mean, read-out: Concentration, Mean
[5] = po, 5 mg/kg, Table 11, PO Dose: 5 mg/kg, Mouse 4, read-out: Concentration
[6] = po, 5 mg/kg, Table 11, PO Dose: 5 mg/kg, Mouse 5, read-out: Concentration
[7] = po, 5 mg/kg, Table 11, PO Dose: 5 mg/kg, Mouse 6, read-out: Concentration
[8] = po, 5 mg/kg, Table 11, PO Dose: 5 mg/kg, mean, read-out: Concentration, Mean

SMILES: CC(=O)N[C@@H](Cc1ccc(CN(C)C)cc1)c1nnc(-c2cccc(OC(F)(F)F)c2)s1 [Compound 42320, N-(2-(4-((dimethylamino)methyl)phenyl)-1-(5-(3-(trifluoromethoxy)phenyl)-1,3,4-thiadiazol-2-yl)ethyl)acetamide]
- concentration at 5 min [1]: 86.9 ng/mL
- concentration at 5 min [2]: 90.3 ng/mL
- concentration at 5 min [3]: 85.7 ng/mL
- concentration at 5 min [4]: 87.6 ng/mL
- concentration at 0.25 h [1]: 68.4 ng/mL
- concentration at 0.25 h [2]: 65 ng/mL
- concentration at 0.25 h [3]: 68.3 ng/mL
- concentration at 0.25 h [4]: 67.2 ng/mL
- concentration at 0.5 h [1]: 68 ng/mL
- concentration at 0.5 h [2]: 59.2 ng/mL
- concentration at 0.5 h [3]: 52.7 ng/mL
- concentration at 0.5 h [4]: 60 ng/mL
- concentration at 1 h [1]: 41.2 ng/mL
- concentration at 1 h [2]: 39.4 ng/mL
- concentration at 1 h [3]: 47.1 ng/mL
- concentration at 1 h [4]: 42.6 ng/mL
- concentration at 2 h [1]: 26.5 ng/mL
- concentration at 2 h [2]: 23.9 ng/mL
- concentration at 2 h [3]: 25.9 ng/mL
- concentration at 2 h [4]: 25.4 ng/mL
- concentration at 4 h [1]: 11.9 ng/mL
- concentration at 4 h [2]: 9.71 ng/mL
- concentration at 4 h [3]: 13 ng/mL
- concentration at 4 h [4]: 11.5 ng/mL
- concentration at 8 h [1]: 4.08 ng/mL
- concentration at 8 h [2]: 3.66 ng/mL
- concentration at 8 h [3]: 5.31 ng/mL
- concentration at 8 h [4]: 4.35 ng/mL
- C0 (iv, 1 mg/kg, Mouse 1): 97.9 ng/mL
- AUC(0-inf) (iv, 1 mg/kg, Mouse 1, read-out: AUCInf): 183 ng·h/mL
- AUC(0-t) (iv, 1 mg/kg, Mouse 1, read-out: AUClast): 169 ng·h/mL
- MRT inf (iv, 1 mg/kg, Mouse 1, read-out: MRTInf—obs): 2.66 h
- half-life (iv, 1 mg/kg, Mouse 1, read-out: T1/2 (converted)): 136 min
- Vd (iv, 1 mg/kg, Mouse 1, read-out: Vss—obs): 14.6 L/kg
- C0 (iv, 1 mg/kg, Mouse 2): 106 ng/mL
- AUC(0-inf) (iv, 1 mg/kg, Mouse 2, read-out: AUCInf): 165 ng·h/mL
- AUC(0-t) (iv, 1 mg/kg, Mouse 2, read-out: AUClast): 153 ng·h/mL
- MRT inf (iv, 1 mg/kg, Mouse 2, read-out: MRTInf—obs): 2.59 h
- half-life (iv, 1 mg/kg, Mouse 2, read-out: T1/2 (converted)): 137 min
- Vd (iv, 1 mg/kg, Mouse 2, read-out: Vss—obs): 15.7 L/kg
- C0 (iv, 1 mg/kg, Mouse 3): 96 ng/mL
- AUC(0-inf) (iv, 1 mg/kg, Mouse 3, read-out: AUCInf): 193 ng·h/mL
- AUC(0-t) (iv, 1 mg/kg, Mouse 3, read-out: AUClast): 172 ng·h/mL
- MRT inf (iv, 1 mg/kg, Mouse 3, read-out: MRTInf—obs): 3.17 h
- half-life (iv, 1 mg/kg, Mouse 3, read-out: T1/2 (converted)): 161 min
- Vd (iv, 1 mg/kg, Mouse 3, read-out: Vss—obs): 16.4 L/kg
- AUC(0-inf) (iv, 1 mg/kg, mean, read-out: AUCInf, Mean): 180 ng·h/mL
- AUC(0-t) (iv, 1 mg/kg, mean, read-out: AUClast, Mean): 165 ng·h/mL
- MRT inf (iv, 1 mg/kg, mean, read-out: MRTInf—obs, Mean): 2.81 h
- half-life (iv, 1 mg/kg, mean, read-out: T1/2, Mean (converted)): 145 min
- Vd (iv, 1 mg/kg, mean, read-out: Vss—obs, Mean): 15.6 L/kg
- concentration at 0.25 h [5]: 100 ng/mL
- concentration at 0.25 h [6]: 71.4 ng/mL
- concentration at 0.25 h [7]: 78.6 ng/mL
- concentration at 0.25 h [8]: 83 ng/mL
- concentration at 0.5 h [5]: 201 ng/mL
- concentration at 0.5 h [6]: 121 ng/mL
- concentration at 0.5 h [7]: 122 ng/mL
- concentration at 0.5 h [8]: 148 ng/mL
- concentration at 1 h [5]: 193 ng/mL
- concentration at 1 h [6]: 119 ng/mL
- concentration at 1 h [7]: 112 ng/mL
- concentration at 1 h [8]: 141 ng/mL
